Data taken from patent US11518739B2, “Sulfonamide carboxamide compounds” (Inflazome Limited, priority 2017, dated 2022).

How the values were obtained:
NLRP3 [1] = target: T1, NLRP3 (Homo sapiens, UniProt Q96P20); experiment: Human whole blood IL-1β release assay (LPS + nigericin, AlphaLisa); assay type: cell-based; set-up: Plate out 80 μl of whole blood containing 1 μg/ml of LPS in 96-well, clear bottom cell culture plate; from tissue; host or cells: human whole blood from healthy donors (Li-heparin); details: NLRP3 inhibitory activity in human whole blood, 1 μg/ml LPS, 10 μM nigericin, read-out: HWB IC50
T1 sequence (Q96P20 whole entry): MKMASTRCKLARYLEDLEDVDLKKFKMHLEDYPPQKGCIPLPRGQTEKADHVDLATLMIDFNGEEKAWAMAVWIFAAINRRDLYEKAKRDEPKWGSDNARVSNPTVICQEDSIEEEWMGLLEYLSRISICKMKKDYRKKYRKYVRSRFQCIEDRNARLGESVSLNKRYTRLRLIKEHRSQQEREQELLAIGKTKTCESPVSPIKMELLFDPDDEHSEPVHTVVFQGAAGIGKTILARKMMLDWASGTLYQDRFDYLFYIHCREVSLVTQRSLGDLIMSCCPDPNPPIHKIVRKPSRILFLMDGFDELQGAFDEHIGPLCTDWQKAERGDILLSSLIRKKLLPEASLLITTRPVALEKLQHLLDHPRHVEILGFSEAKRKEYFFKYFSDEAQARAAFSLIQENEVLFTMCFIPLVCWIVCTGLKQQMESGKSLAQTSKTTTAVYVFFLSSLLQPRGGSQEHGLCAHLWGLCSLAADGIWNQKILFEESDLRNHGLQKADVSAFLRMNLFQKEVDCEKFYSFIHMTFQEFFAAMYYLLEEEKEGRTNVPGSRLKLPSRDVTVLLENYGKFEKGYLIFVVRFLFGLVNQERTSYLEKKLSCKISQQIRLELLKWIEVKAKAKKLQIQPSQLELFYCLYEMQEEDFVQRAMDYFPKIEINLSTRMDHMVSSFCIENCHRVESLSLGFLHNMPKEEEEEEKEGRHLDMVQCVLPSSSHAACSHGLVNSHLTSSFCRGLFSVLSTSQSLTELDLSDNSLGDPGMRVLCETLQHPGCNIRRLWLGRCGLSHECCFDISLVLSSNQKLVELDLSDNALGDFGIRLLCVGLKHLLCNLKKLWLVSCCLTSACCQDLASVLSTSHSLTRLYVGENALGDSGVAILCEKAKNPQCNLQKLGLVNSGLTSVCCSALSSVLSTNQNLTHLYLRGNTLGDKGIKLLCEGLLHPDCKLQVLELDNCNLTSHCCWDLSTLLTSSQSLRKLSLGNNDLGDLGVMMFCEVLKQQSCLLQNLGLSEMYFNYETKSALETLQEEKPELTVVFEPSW
Procedure: For systemic delivery, the ability to inhibit NLRP3 when the compounds are present within the bloodstream is of great importance. For this reason, the NLRP3 inhibitory activity of a number of compounds in human whole blood was investigated in accordance with the following protocol.
Human whole blood in Li-heparin tubes was obtained from healthy donors from a volunteer donor panel. • 1. Plate out 80 μl of whole blood containing 1 μg/ml of LPS in 96-well, clear bottom cell culture plate (Corning #3585) • 2. Add 10 μl compound (8 points half-log dilution with 10 μM top dose) or vehicle (DMSO 0.1% FAC) to the appropriate wells • 3. Incubate for 3 hrs at 37° C., 5% CO2 • 4. Add 10 μl nigericin (Sigma #N7143) (10 μM FAC) to all wells • 5. Incubate for 1 hr at 37° C., 5% CO2 • 6. At the end of the incubation period, spin plates at 300×g for 5 mins to pellet cells and remove 20 μl of supernatant and add to 96-well v-bottom plates for IL-1β analysis (note: these plates containing the supernatants can be stored at −80° C. to be analysed at a later date) • 7. IL-1β was measured according to the manufacturer protocol (Perkin Elmer-AlphaLisa IL-1 Kit AL220F-5000) • 8. IC50 data is fitted to a non-linear regression equation (log inhibitor vs response-variable slope 4-parameters)

NLRP3 [2] = target: T1, NLRP3; experiment: THP-1 cells pyroptosis assay (LPS-primed, nigericin-triggered, resazurin readout); assay type: cell-based; set-up: Seed THP-1 cells (25,000 cells/well) containing 1.0 μg/ml LPS in 40 μl of RPMI medium; host or cells: THP-1 cells, LPS-primed, nigericin-triggered; details: NLRP3 inhibitory activity in THP-1 cells, 1.0 μg/ml LPS, 5 μM nigericin
Procedure: THP-1 cells (ATCC #TIB-202) were grown in RPMI containing L-glutamine (Gibco #11835) supplemented with ImM sodium pyruvate (Sigma #S8636) and penicillin (100 units/ml)/streptomycin (0.1 mg/ml) (Sigma #P4333) in 10% Fetal Bovine Serum (FBS) (Sigma #F0804). The cells were routinely passaged and grown to confluency ([…]). On the day of the experiment, THP-1 cells were harvested and resuspended into RPMI medium (without FBS). The cells were then counted and viability (>90%) checked by Trypan blue (Sigma #T8154). Appropriate dilutions were made to give a concentration of 625,000 cells/ml. To this diluted cell solution was added LPS (Sigma #L4524) to give a 1 μg/ml Final Assay Concentration (FAC). […] of the final preparation was aliquoted into each well of a 96-well plate. The plate thus prepared was used for compound screening.
The following method step-by-step assay was followed for compound screening. • 1. Seed THP-1 cells (25,000 cells/well) containing 1.0 μg/ml LPS in 40 μl of RPMI medium (without FBS) in 96-well, black walled, clear bottom cell culture plates coated with poly-D-lysine (VWR #734-0317) • 2. Add 5 μl compound (8 points half-log dilution, with 10 μM top dose) or vehicle (DMSO 0.1% FAC) to the appropriate wells • 3. Incubate for 3 hrs at 37° C. in 5% CO2 • 4. Add 5 μl nigericin (Sigma #N7143) (FAC 5 μM) to all wells • 5. Incubate for 1 hr at 37° C. and 5% CO2 • 6. At the end of the incubation period, spin plates at 300×g for 3 mins and remove supernatant • 7. Then add 50 μl of resazurin (Sigma #R7017) (FAC 100 μM resazurin in RPMI medium without FBS) and incubate plates for a further 1-2 hrs at 37° C. and 5% CO2 • 8. Plates were read in an Envision reader at Ex 560 nm and Em 590 nm • 9. IC50 data is fitted to a non-linear regression equation (log inhibitor vs response-variable slope 4-parameters)

IC50 (NLRP3 [1]): ≤ 5000 nM | IC50 (NLRP3 [2]): ≤ 1000 nM
SMILES: C=CS(=O)(=O)NC(=O)Nc1c2c(cc3c1CCC3)CCC2 [Example 3, N-((1,2,3,5,6,7-Hexahydro-s-indacen-4-yl)carbamoyl)ethenesulfonamide]
